# Experimental data reported in patent US9982005B2, “Macrolides and methods of their preparation and use” (President and Fellows of Harvard College, priority 2013, dated 2018).
# Where two headings read alike, the source gives them in different places.
# Experiments:
# Format in all cases: cell-based
# [1] = system: SA101 S. aureus ATCC29213; experiment: broth dilution MIC, S. aureus SA101; conditions: Staphylococcus aureus, ATCC29213, SA101 S. aureus ATCC29213; read-out: MIC
# Summary of the method: (§1)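 Values are broth dilution MICs measured according to CLSI standard procedure; the macrolide azithromycin was tested as control.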
# [2] = system: SA183 S. aureus ermA positive msrA unknown; experiment: broth dilution MIC, S. aureus SA183; conditions: Staphylococcus aureus
# Text: (§2) We have collected MIC data for a total of 50 novel macrolides that this platform has produced against over 21 unique strains of B. subtilis, E. coli, S. aureus, S. pneumoniae, and H. influenzae, including several multidrug-resistant strains, with a special focus on macrolide resistant mechanisms (vide supra). Azithromycin was included as a control macrolide. CLSI standard procedures for broth dilution MIC determination were used. […] These genotypes can be constitutive or inducible. The finding that C4-epi (unnatural) isomers of the “azaketolide” macrolide class have enhanced activities relative to C4 natural isomers is very exciting.
# [3] = system: SA418 S. aureus ermA negative msrA positive; experiment: broth dilution MIC, S. aureus SA418; conditions: Staphylococcus aureus
# Text: as §2
# [4] = system: SA506 S. aureus ermA positive msrA unknown; experiment: broth dilution MIC, S. aureus SA506; conditions: Staphylococcus aureus
# Text: as §2
# [5] = system: SA557 S. aureus ermA unknown msrA positive; experiment: broth dilution MIC, S. aureus SA557; conditions: Staphylococcus aureus; SA557 S. aureus ermA unknown msrA positive; read-out: MIC
# Text: as §2
# [6] = system: SA1707 S. aureus ermA negative msrA positive; experiment: broth dilution MIC, S. aureus SA1707; conditions: Staphylococcus aureus
# Text: as §2
# [7] = system: SA1708 S. aureus ermA positive msrA negative; experiment: broth dilution MIC, S. aureus SA1708; conditions: Staphylococcus aureus
# Text: as §2
# [8] = system: Spn 106 S. pneumonia ATCC49619; experiment: broth dilution MIC, S. pneumoniae Spn 106; conditions: Streptococcus pneumoniae
# Text: as §2
# [9] = system: Spn160 S. pneumoniae ermB unknown mefA positive; experiment: broth dilution MIC, S. pneumoniae Spn160; conditions: Streptococcus pneumoniae
# Text: as §2
# [10] = system: Spn1509 S. pneumoniae ermB positive mefA negative; experiment: broth dilution MIC, S. pneumoniae Spn1509; conditions: Streptococcus pneumoniae; Spn1509 S. pneumoniae ermB positive mefA negative; read-out: MIC
# Text: as §2
# [11] = system: Spn1533 S. pneumoniae ermB positive mefA positive; experiment: broth dilution MIC, S. pneumoniae Spn1533; conditions: Streptococcus pneumoniae
# Text: as §2
# [12] = system: Spn1537 S. pneumoniae ermB positive mefA positive; experiment: broth dilution MIC, S. pneumoniae Spn1537; conditions: Streptococcus pneumoniae
# Text: as §2
# [13] = system: HI175 H. influenzae ATCC49247; experiment: broth dilution MIC, H. influenzae HI175; conditions: Haemophilus influenzae
# Text: as §2
# [14] = system: HI281 H. influenzae; experiment: broth dilution MIC, H. influenzae HI281; conditions: Haemophilus influenzae
# Text: as §2
# [15] = system: EC107 E. coli ATCC25922; experiment: broth dilution MIC, E. coli EC107; conditions: Escherichia coli, read-out: MIC
# Summary of the method: as §1
# [16] = system: EC878 E. coli tolC; experiment: broth dilution MIC, E. coli EC878; conditions: Escherichia coli
# Summary of the method: as §1
# [17] = system: EC882 E. coli imp; experiment: broth dilution MIC, E. coli EC882
# Summary of the method: as §1
# [18] = system: BS1723 B. subtilis BS168 WT wild type; experiment: broth dilution MIC, B. subtilis BS1723; conditions: Bacillus subtilis, BS1723 B. subtilis BS168 WT wild type; read-out: MIC
# Summary of the method: as §1
# [19] = system: BS1725 B. subtilis ermC; experiment: broth dilution MIC, B. subtilis BS1725; conditions: Bacillus subtilis, BS1725 B. subtilis ermC (+ery)
# Summary of the method: as §1
# [20] = system: S. aureus (Newman, clinical isolate); experiment: MIC, S. aureus Newman; conditions: Staphylococcus aureus, S. aureus (Neuman, clinical isolate), round 2
# Text: as §2
# [21] = system: E. coli (MC4100); experiment: MIC, E. coli MC4100; conditions: Escherichia coli, round 2, read-out: MIC
# Text: as §2
# [22] = system: E. coli strains; experiment: MIC against E. coli strains (Table M7); conditions: Escherichia coli, ATCC25922, E. coli ATCC 25922
# Summary of the method: as §1
# [23] = system: S. aureus strains; experiment: MIC against S. aureus strains (Table M7); conditions: Staphylococcus aureus
# Summary of the method: as §1
# [24] = system: S. pneumoniae strains; experiment: MIC against S. pneumoniae strains (Tables M7, M8); conditions: Streptococcus pneumoniae
# Text: CLSI standard procedures for broth dilution MIC determination were used. […] These genotypes can be constitutive or inducible.
# [25] = system: E. faecalis strains; experiment: MIC against E. faecalis strains (Table M8); conditions: Enterococcus faecalis, E. faecalis 29212
# [26] = system: A. baumannii strains; experiment: MIC against A. baumannii strains (Table M8); conditions: Acinetobacter baumannii, BAA747, A. baumannii BAA747-1
# [27] = system: K. pneumoniae strains; experiment: MIC against K. pneumoniae strains (Table M8); conditions: Klebsiella pneumoniae, K. pneumoniae 10031
# [28] = system: H. influenzae strains; experiment: MIC against H. influenzae strains (Table M8); conditions: Haemophilus influenzae
# Summary of the method: as §1
# [29] = system: Spn1427 S. pneumoniae ermB positive mefA negative; experiment: broth dilution MIC, S. pneumoniae Spn1427; conditions: Streptococcus pneumoniae
# Text: as §2
# [30] = Spn 106 S. pneumonia ATCC49619, read-out: MIC
# [31] = Spn160 S. pneumoniae ermB unknown mefA positive, read-out: MIC
# [32] = ATCC29213, S. aureus ATCC 29213, read-out: MIC S. aureus (ATCC 29213)
# [33] = S. aureus 506, read-out: MIC S. aureus (506)
# [34] = S. aureus 1708, read-out: MIC S. aureus (1708)
# [35] = USA300, S. aureus USA300, read-out: MIC S. aureus (USA300)
# [36] = S. pneumoniae 160, read-out: MIC S. pneumonae (160)
# [37] = S. pneumoniae 1509, read-out: MIC S. pneumoniae (1509)
# [38] = S. pneumoniae 1533, read-out: MIC S. pneumoniae (1533)
# [39] = S. pneumoniae 1537, read-out: MIC S. pneumoniae (1537)
# [40] = H. influenzae 49247, read-out: MIC H. influenzae (49247)
# [41] = H. influenzae 49766, read-out: MIC H. influenzae (49766)
Compound,MIC [1],MIC [2],MIC [3],MIC [4],MIC [5],MIC [6],MIC [7],"MIC [8, 30]","MIC [9, 31]",MIC [10],MIC [11],MIC [12],MIC [13],MIC [14],MIC [15],MIC [16],MIC [18],MIC [19],MIC ([17]; Escherichia coli),MIC [22],other results
CC[C@H]1OC(=O)C(C)(F)C(=O)[C@@H](C)[C@@H](O[C@@H]2OC(C)CC(N(C)C)C2O)[C@](C)(OC)C[C@@H](C)CN(C)[C@H](C)[C@H]2N(CCCCn3cc(-c4nccs4)nn3)C(=O)O[C@]12C (some centres unmarked) [FSM-20705],8 µg/mL,> 32 µg/mL,16 µg/mL,> 32 µg/mL,8 µg/mL,32 µg/mL,16 µg/mL,0.125 to 0.25 µg/mL,0.5 to 1 µg/mL,4 to 16 µg/mL,> 32 µg/mL,> 32 µg/mL,16 to 32 µg/mL,> 32 µg/mL,> 32 µg/mL,2 µg/mL,8 µg/mL,> 32 µg/mL,,,MIC [17]: 0.25 µg/mL
CC[C@H]1OC(=O)[C@H](C)C(=O)[C@H](C)[C@@H](O[C@@H]2OC(C)CC(N(C)C)C2O)[C@](C)(OC)C[C@@H](C)CN[C@H](C)[C@H]2N(CCCCn3cc(-c4cccc(N)c4)nn3)C(=O)O[C@]12C (some centres unmarked) [FSM-20707],,> 32 µg/mL,1 µg/mL,> 32 µg/mL,0.5 to 1 µg/mL,0.5 to 2 µg/mL,1 to 2 µg/mL,0.0156 to 0.0312 µg/mL,,0.25 to 2 µg/mL,,32 µg/mL,1 to 2 µg/mL,4 µg/mL,8 µg/mL,0.5 µg/mL,0.5 µg/mL,8 µg/mL,0.0625 µg/mL,4 µg/mL,"MIC [9]: 0.0625 to 0.125 µg/mL; MIC [20]: 0.5 µg/mL; MIC [21]: 4 µg/mL; MIC [23, 32]: 1 µg/mL; MIC ([23]; S. aureus 183, read-out: MIC S. aureus (183)): > 32 µg/mL; MIC [23, 33]: > 32 µg/mL; MIC [23, 34]: 1 µg/mL; MIC [23, 35]: 4 µg/mL; MIC [24, 36]: 0.125 µg/mL; MIC [24, 37]: 1 µg/mL; MIC [24, 38]: > 32 µg/mL; MIC [24, 39]: > 32 µg/mL; MIC ([24]; read-out: MIC S. pneumoniae (49619)): ≤ 0.0625 µg/mL; MIC [25]: 0.25 µg/mL; MIC [26]: 8 µg/mL; MIC [27]: 2 µg/mL; MIC [28, 40]: 0.5 µg/mL; MIC [28, 41]: 2 µg/mL"
CC[C@H]1OC(=O)[C@H](C)C(=O)[C@H](C)[C@@H](O[C@@H]2OC(C)CC(N(C)C)C2O)[C@](C)(OC)C[C@@H](C)CN[C@H](C)[C@H]2N(CCCCn3cc(-c4cccc(N)n4)nn3)C(=O)O[C@]12C (some centres unmarked) [FSM-20715],1 to 2 µg/mL,> 32 µg/mL,2 µg/mL,> 32 µg/mL,1 µg/mL,2 µg/mL,2 µg/mL,,0.125 to 0.25 µg/mL,0.5 to 2 µg/mL,> 32 µg/mL,> 32 µg/mL,2 µg/mL,4 µg/mL,4 µg/mL,0.5 µg/mL,1 µg/mL,16 µg/mL,0.0312 µg/mL,8 µg/mL,"MIC ([8]; ATCC49619): 0.0156 to 0.0312 µg/mL; MIC [23, 32]: 1 µg/mL; MIC [23, 33]: > 32 µg/mL; MIC [23, 34]: 2 µg/mL; MIC [23, 35]: 2 µg/mL; MIC [24, 36]: 0.25 µg/mL; MIC [24, 37]: 2 µg/mL; MIC [24, 38]: > 32 µg/mL; MIC [24, 39]: > 32 µg/mL; MIC ([24]; S. pneumoniae 49619, read-out: MIC S. pneumoniae (49619)): 0.125 µg/mL; MIC [25]: 0.25 µg/mL; MIC [26]: 8 µg/mL; MIC [27]: 2 µg/mL; MIC [28, 40]: 0.5 µg/mL; MIC [28, 41]: 2 µg/mL"
CC[C@H]1OC(=O)C(C)(F)C(=O)[C@@H](C)[C@@H](O[C@@H]2OC(C)CC(N(C)C)C2O)[C@](C)(OC)C[C@@H](C)CN[C@H](C)[C@H]2N(CCCCn3cc(-c4nccs4)nn3)C(=O)O[C@]12C (some centres unmarked) [FSM-20721],8 µg/mL,> 32 µg/mL,16 µg/mL,> 32 µg/mL,16 µg/mL,16 µg/mL,16 µg/mL,0.125 to 0.25 µg/mL,0.5 to 1 µg/mL,8 to 16 µg/mL,> 32 µg/mL,> 32 µg/mL,8 to 32 µg/mL,,> 32 µg/mL,1 µg/mL,8 µg/mL,> 32 µg/mL,0.25 µg/mL,,MIC [29]: > 32 µg/mL
